Test results as given in patent US20230172203A1, “PLANT METABOLISM PROMOTING COMPOSITIONS AND METHODS OF USE” (Panoptic Ag Solutions LLC, priority 2021, published 2023).

Key:
Format in all cases: in vivo
[1] = test system: Soybean seed; experiment: 2020 Greenhouse Soybean Seed Treatment Trial
Method: The base formulation used in greenhouse trials was an aqueous solution of L-theanine (20% by weight). The base formulation was further diluted with water as detailed for each trial. Soybean seed (n=32/treatment) was treated with an aqueous solution of L-theanine at a rate of 1.0 fl. oz. per hundredweight of soybean seed. The seeds were planted in commercial potting soil in 1-gallon pots. The plants were grown for 21 days before they were harvested.

[2] = test system: Whale variety spinach plant seedlings; experiment: 2021 Greenhouse Spinach Trial
From the text: (§1) The base formulation used in greenhouse trials was an aqueous solution of L-theanine (20% by weight). The base formulation was further diluted with water as detailed for each trial. Whale variety spinach plant seedlings (n=6/treatment) were planted in commercial potting soil and then were transplanted to 3-gallon pots. L-theanine treatment was applied at the equivalent of 1 pint in 100 gallons of water (125 ppm) and sprayed till runoff. Two treatment applications were made to the plants approximately 14 days apart.

[3] = test system: Rutgers variety tomato plant seedlings; experiment: 2021 Greenhouse Tomato Trial
From the text: as §1, with “Rutgers” for “Whale”, “tomato” for “spinach”, “3 gallon” for “3-gallon”

[4] = test system: corn; experiment: 2021 York, NE Corn Replicated Field Trial; details: in-furrow application 8 fl. oz. per acre; V5 growth stage; vs untreated plant
From the text: FIG. 1 is a photo from a 2021 York, NE Corn Trial. An aqueous solution of L-theanine was applied to the corn as an in-furrow application at a rate of 8 fl. oz. per acre. The pictures from the trial were taken at the V5 (5th Leaf) growth stage.

[5] = test system: Seedless watermelon plant seedlings; experiment: 2021 Watermelon Trial
From the text: as §1, with “Seedless watermelon” for “Whale variety spinach”, “(n=4/treatment)” for “(n=6/treatment)”

[6] = test system: Zinnia plants; experiment: 2021 Zinnia Greenhouse Trial
From the text: as §1, with “trial. Zinna seeds” for “trial. Whale variety spinach plant seedlings”, “then” for “then were”, “transplanted into” for “transplanted to”, “Two treatments” for “Two treatment applications”

[7] = test system: Butterbaby variety squash plant seedlings; experiment: 2021 Greenhouse Squash Trial
From the text: as §1, with “Butterbaby” for “Whale”, “squash” for “spinach”, “(n=4/treatment)” for “(n=6/treatment)”

[8] = test system: Soybean plants; experiment: 2021 Greenhouse Soybean Trial (soil application)
Method: The base formulation used in greenhouse trials was an aqueous solution of L-theanine (20% by weight). The base formulation was further diluted with water as detailed for each trial. Soybean seeds (n=28/treatment) were planted in commercial potting soil in 1-gallon pots. Approximately 14 days after seedling emergence, an aqueous L-theanine solution was mixed into water at a rate of 0.2 mL per 1000 mL water. The resulting solution was applied to the soil of the pots at a rate of 50 mL per plant. Plants were grown for an additional 14 days then harvested.

[9] = test system: Mature apple trees; experiment: 2021 New York Replicated Apple Field Trial
Method: Mature apple trees (n=6) were treated with a 20% aqueous L-theanine solution at 1 pint per acre with application timings at Pink Bud, Bloom, Petal Fall, and every 2 weeks from Petal Fall until harvest.

[10] = over the untreated check, seed treatment
[11] = seed treatment 1.0 fl. oz. per hundredweight of seed, harvested after 21 days
[12] = foliar spray 125 ppm till runoff, two applications ~14 days apart
[13] = vs untreated check, 125 ppm foliar, two applications
[14] = foliar spray 125 ppm till runoff, two treatments ~14 days apart
[15] = over the untreated check, 125 ppm foliar, two treatments
[16] = 0.2 mL per 1000 mL water, 50 mL per plant, harvested 14 days later
[17] = 20% aqueous solution at 1 pint per acre, Pink Bud, Bloom, Petal Fall, then every 2 weeks until harvest

For `CCNC(=O)CC[C@H](N)C(=O)O` [L-theanine], the increase in biomass [1, 10] was 0.43 g, the “increase in biomass, percent” value [1, 10] was 8.0% and the “increase in root length” value [1, 10] was 94.4 cm. For the same compound, the “increase in root length, percent” value [1, 10] was 8.1%, the “increase in root tips” value [1, 10] was 763.4 and the “increase in root tips, percent” value [1, 10] was 21.0%. The “Plant Biomass” value [1, 11] was 5.80 a g, the “Root Length” value [1, 11] was 1263.7 a cm and the “Root Tips (count)” value [1, 11] was 4392.0 a count. For the same compound, the “Basal Diameter” value [2, 12] was 3.07 a mm, the “Leaf (count)” value [2, 12] was 8.66 a count and the “Plant Height” value [2, 12] was 8.67 a in. For the same compound, the “increase in leaf count” value [2, 13] was 1, the “increase in leaf count, percent” value [2, 13] was 13.1% and the “increase in plant height” value [2, 13] was 1.67 in. The “increase in plant height, percent” value [2, 13] was 23.9%, the “Basal Diameter” value [3, 12] was 6.75 a mm and the “Fruit (count)” value [3, 12] was 8.25 a count. For the same compound, the “Leaf (count)” value [3, 12] was 5 a count, the “Plant Height” value [3, 12] was 21.25 a in and the “increase in basal diameter” value [3, 13] was 1.1 mm. The “increase in basal diameter, percent” value [3, 13] was 19.5%, the “increase in fruit count” value [3, 13] was 3.75 and the “increase in fruit count, percent” value [3, 13] was 83.3%. The “increase in plant height” value [3, 13] was 2.5 in, the “increase in plant height, percent” value [3, 13] was 13.3% and the “root biomass development and stalk girth (FIG. 1, in words)” value [4] was “increases in root biomass development and stalk girth”. The “Fruit/Vine (count)” value [5, 12] was 9.50 a count, the “Vine Length” value [5, 12] was 51.0 a cm and the “increase in average fruit per vine” value [5, 13] was 4.75. For the same compound, the “increase in average fruit per vine, percent” value [5, 13] was 100.0%, the “increase in vine development” value [5, 13] was 14.5 cm and the “increase in vine development, percent” value [5, 13] was 39.7%. For the same compound, the “Basal Diameter” value [6, 14] was 6.45 a mm, the “Flower (count)” value [6, 14] was 10.17 count and the “Plant Height” value [6, 14] was 35.83 a cm. For the same compound, the “increase in basal diameter” value [6, 15] was 1.2 mm, the “increase in basal diameter, percent” value [6, 15] was 22.9% and the “increase in flower counts” value [6, 15] was 6.0. The “increase in flower counts, percent” value [6, 15] was 143.9%, the “increase in plant height” value [6, 15] was 9.66 cm and the “increase in plant height, percent” value [6, 15] was 36.9%. For the same compound, the “plant productivity, flowering and fruit set (in words)” value ([7]; 125 ppm foliar, two applications) was “improved plant productivity, early flowering, and early fruit set”, the “Fruit/Vine (count)” value [7, 12] was 4.25 a count and the “Vine Length” value [7, 12] was 55.00 a in. The “increase in fruit per vine” value [7, 13] was 2.75 fruit, the “increase in fruit per vine, percent” value [7, 13] was 183.3% and the “increase in vine length” value [7, 13] was 11.25 in. For the same compound, the “increase in vine length, percent” value [7, 13] was 25.7%, the “Plant Biomass” value [8, 16] was 7.44 a g and the “Root Length” value [8, 16] was 1631.4 a cm. The “increase in root length” value ([8]; above the untreated check) was 66.4 cm, the “increase in root length, percent” value ([8]; above the untreated check) was 4.2% and the “increase in soybean biomass” value ([8]; above the untreated check) was 1.3 g. For the same compound, the “increase in soybean biomass, percent” value ([8]; above the untreated check) was 20.4%, the Defects [9, 17] was 114.5 a bu/acre and the “Salable Yield” value [9, 17] was 837.8 a bu/acre. For the same compound, the “Total Yield” value [9, 17] was 952.3 a bu/acre, the “increase in salable yield, percent” value ([9]; vs untreated check) was 12.5% and the “number of defective fruits (in words)” value ([9]; vs untreated check) was “reduced the number of defective fruits”. For the same compound, the “increase in salable yield” value ([9]; vs untreated check, 1 bushel=48 lbs) was 93.1 bushels/acre.
